Measurements published in patent publication US20260258032A1, “TYROSINE KINASE 2 INHIBITORS AND USES THEREOF” (BIOGEN MA INC., priority 2022, published 2026).
pIC50: −log10 of the molar value. Structures can show the parent of a compound that is named as a salt.

Legend:
JH2 domain of human Tyk2 = target: T1, JH2 domain of human Tyk2 (Homo sapiens, UniProt P29597); experiment: JH2 biochemical assay (TR-FRET probe displacement); format: binding; conditions: JH2 biochemical assay
T1 construct: 10×His-tagged TYK2 JH2 domain (amino acid 575-876)
Procedure, shortened: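 10×His-tagged human TYK2 JH2 (aa 575-876, 2 nM) incubated 60 min with 2 nM fluorescent probe, 0.1 nM Tb anti-His antibody and compound (10-point 3-fold series from […] top). TR-FRET 520/495 nm ratio, falling with probe displacement, normalized and fitted to a 4-parameter logistic for IC50.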

[1] = tested on: Tyk2 kinase activity on STAT4; experiment: pSTAT4 cell assay (MSD, NK92 cells); format: cell-based; conditions: compounds 1 hr, stimulated 15 minutes
Procedure, shortened: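 IC50 values derive from 4-parameter logistic fits of normalized percent activity against log compound concentration. Phospho-STAT was measured by MSD with anti-STAT4 antibodies after 15 min of 30 ng/mL IL2 in serum-starved NK92 cells pretreated 1 hr with compound.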

T1 sequence (P29597 575-876): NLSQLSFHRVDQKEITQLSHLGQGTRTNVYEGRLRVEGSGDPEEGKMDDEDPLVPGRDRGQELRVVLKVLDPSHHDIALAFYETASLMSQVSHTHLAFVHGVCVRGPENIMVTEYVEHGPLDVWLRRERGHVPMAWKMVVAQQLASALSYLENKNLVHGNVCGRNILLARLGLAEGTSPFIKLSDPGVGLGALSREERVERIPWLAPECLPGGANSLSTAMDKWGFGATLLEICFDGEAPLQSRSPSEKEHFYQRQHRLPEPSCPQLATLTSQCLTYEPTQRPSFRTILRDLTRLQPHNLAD

`CC(=O)Nc1cc2c(cn1)C1(CC1)CN2c1cc(C)nc(N2CCC2C)n1` (centres unmarked) [Example 235, N-(1′-(6-methyl-2-(2-methylazetidin-1-yl)pyrimidin-4-yl)-1′,2′-dihydrospiro[cyclopropane-1,3′-pyrrolo[3,2-c]pyridin]-6′-yl)acetamide] was tested, and the pIC50 (JH2 domain of human Tyk2) was ≥ 8.00 and the pIC50 [1] was 6.00 to 7.00.
For `CC(=O)Nc1cc2c(cn1)C1(CC1)CN2c1cc(C)nc(N2CCC(C)(O)C2)n1` (centres unmarked) [Example 236, N-(1′-(2-(3-hydroxy-3-methylpyrrolidin-1-yl)-6-methylpyrimidin-4-yl)-1′,2′-dihydrospiro[cyclopropane-1,3′-pyrrolo[3,2-c]pyridin]-6′-yl)acetamide], the pIC50 (JH2 domain of human Tyk2) was 7.00 to 8.00 and the pIC50 [1] was ≤ 6.00.
In the case of `CC(=O)Nc1cc2c(cn1)C1(CC1)CN2c1cc(C)nc(N2CC(O)C2)n1` [Example 237, N-(1′-(2-(3-hydroxyazetidin-1-yl)-6-methylpyrimidin-4-yl)-1′,2′-dihydrospiro[cyclopropane-1,3′-pyrrolo[3,2-c]pyridin]-6′-yl)acetamide], the pIC50 (JH2 domain of human Tyk2) was 7.00 to 8.00 and the pIC50 [1] was ≤ 6.00.
In the case of `CC(=O)Nc1cc2c(cn1)C1(CC1)CN2c1cc(-c2cn(C)nc2C)nc(C(C)(F)F)n1` [Example 239, N-(1′-(2-(1,1-difluoroethyl)-6-(1,3-dimethyl-1H-pyrazol-4-yl)pyrimidin-4-yl)-1′,2′-dihydrospiro[cyclopropane-1,3′-pyrrolo[3,2-c]pyridin]-6′-yl)acetamide trifluoroacetate], the pIC50 (JH2 domain of human Tyk2) was ≥ 8.00 and the pIC50 [1] was 7.00 to 8.00.
In the case of `CC(=O)Nc1cc2c(cn1)C1(CC1)CN2c1cc(-c2cnn(C)c2C)nc(C(C)(F)F)n1` [Example 240, N-(1′-(2-(1,1-difluoroethyl)-6-(1,5-dimethyl-1H-pyrazol-4-yl)pyrimidin-4-yl)-1′,2′-dihydrospiro[cyclopropane-1,3′-pyrrolo[3,2-c]pyridin]-6′-yl)acetamide trifluoroacetate], the pIC50 (JH2 domain of human Tyk2) was ≥ 8.00 and the pIC50 [1] was 7.00 to 8.00.
In the case of `CC(=O)Nc1cc2c(cn1)C1(CC1)CN2c1cc(-c2ccn(C)n2)nc(C(C)(F)F)n1` [Example 241, N-(1′-(2-(1,1-difluoroethyl)-6-(1-methyl-1H-pyrazol-3-yl)pyrimidin-4-yl)-1′,2′-dihydrospiro[cyclopropane-1,3′-pyrrolo[3,2-c]pyridin]-6′-yl)acetamide], the pIC50 (JH2 domain of human Tyk2) was ≥ 8.00 and the pIC50 [1] was 7.00 to 8.00.
With `CC(=O)Nc1cc2c(cn1)C1(CC1)CN2c1cc(-c2ccc(C)nc2)nc(C(C)(F)F)n1` [Example 242, N-(1′-(2-(1,1-difluoroethyl)-6-(6-methylpyridin-3-yl)pyrimidin-4-yl)-1′,2′-dihydrospiro[cyclopropane-1,3′-pyrrolo[3,2-c]pyridin]-6′-yl)acetamide] the pIC50 (JH2 domain of human Tyk2) was ≥ 8.00 and the pIC50 [1] was 7.00 to 8.00.
In the case of `COc1ccc(-c2cc(N3CC4(CC4)c4cnc(NC(C)=O)cc43)nc(C(C)(F)F)n2)cn1` [Example 243, N-(1′-(2-(1,1-difluoroethyl)-6-(6-methoxypyridin-3-yl)pyrimidin-4-yl)-1′,2′-dihydrospiro[cyclopropane-1,3′-pyrrolo[3,2-c]pyridin]-6′-yl)acetamide trifluoroacetate], the pIC50 (JH2 domain of human Tyk2) was ≥ 8.00 and the pIC50 [1] was 7.00 to 8.00.
`CC(=O)Nc1cc2c(cn1)C1(CC1)CN2c1cc(C)nc(-c2ccn(C)n2)n1` [Example 244, N-(1′-(6-methyl-2-(1-methyl-1H-pyrazol-3-yl)pyrimidin-4-yl)-1′,2′-dihydrospiro[cyclopropane-1,3′-pyrrolo[3,2-c]pyridin]-6′-yl)acetamide trifluoroacetate] was tested, and the pIC50 (JH2 domain of human Tyk2) was 7.00 to 8.00 and the pIC50 [1] was ≤ 6.00.
Work on `CC(=O)Nc1cc2c(cn1)C1(CC1)CN2c1cc(C)nc(-c2cnn(C)c2)n1` [Example 245, N-(1′-(6-methyl-2-(1-methyl-1H-pyrazol-4-yl)pyrimidin-4-yl)-1′,2′-dihydrospiro[cyclopropane-1,3′-pyrrolo[3,2-c]pyridin]-6′-yl)acetamide trifluoroacetate] yielded a pIC50 (JH2 domain of human Tyk2) of 7.00 to 8.00 and a pIC50 [1] of 6.00 to 7.00.
`CCn1cc(-c2nc(C)cc(N3CC4(CC4)c4cnc(NC(C)=O)cc43)n2)cn1` [Example 247, N-(1′-(2-(1-ethyl-1H-pyrazol-4-yl)-6-methylpyrimidin-4-yl)-1′,2′-dihydrospiro[cyclopropane-1,3′-pyrrolo[3,2-c]pyridin]-6′-yl)acetamide] was tested, and the pIC50 (JH2 domain of human Tyk2) was ≥ 8.00 and the pIC50 [1] was 6.00 to 7.00.
With `CC(=O)Nc1cc2c(cn1)C1(CC1)CN2c1cc(C)nc(-c2cnn(C)c2C(F)F)n1` [Example 248, N-(1′-(2-(5-(difluoromethyl)-1-methyl-1H-pyrazol-4-yl)-6-methylpyrimidin-4-yl)-1′,2′-dihydrospiro[cyclopropane-1,3′-pyrrolo[3,2-c]pyridin]-6′-yl)acetamide] the pIC50 (JH2 domain of human Tyk2) was 7.00 to 8.00 and the pIC50 [1] was ≤ 6.00.
In the case of `CC(=O)Nc1cc2c(cn1)C1(CC1)CN2c1cc(C)nc(-c2cnn(C(C)C)c2)n1` [Example 249, N-(1′-(2-(1-isopropyl-1H-pyrazol-4-yl)-6-methylpyrimidin-4-yl)-1′,2′-dihydrospiro[cyclopropane-1,3′-pyrrolo[3,2-c]pyridin]-6′-yl)acetamide], the pIC50 (JH2 domain of human Tyk2) was 7.00 to 8.00 and the pIC50 [1] was ≤ 6.00.
In the case of `CC(=O)Nc1cc2c(cn1)C1(CC1)CN2c1cc(C)nc(-c2cnn(C3CC3)c2)n1` [Example 250, N-(1′-(2-(1-cyclopropyl-1H-pyrazol-4-yl)-6-methylpyrimidin-4-yl)-1′,2′-dihydrospiro[cyclopropane-1,3′-pyrrolo[3,2-c]pyridin]-6′-yl)acetamide], the pIC50 (JH2 domain of human Tyk2) was 7.00 to 8.00 and the pIC50 [1] was ≤ 6.00.
In the case of `CC(=O)Nc1cc2c(cn1)C1(CC1)CN2c1cc(C)nc(-c2cnn(C3COC3)c2)n1` [Example 251, N-(1′-(6-methyl-2-(1-(oxetan-3-yl)-1H-pyrazol-4-yl)pyrimidin-4-yl)-1′,2′-dihydrospiro[cyclopropane-1,3′-pyrrolo[3,2-c]pyridin]-6′-yl)acetamide trifluoroacetate], the pIC50 (JH2 domain of human Tyk2) was 7.00 to 8.00 and the pIC50 [1] was ≤ 6.00.
For `CC(=O)Nc1cc2c(cn1)C1(CC1)CN2c1cc(C)nc(-c2cnn(CC3CC3)c2)n1` [Example 253, N-(1′-(2-(1-(cyclopropylmethyl)-1H-pyrazol-4-yl)-6-methylpyrimidin-4-yl)-1′,2′-dihydrospiro[cyclopropane-1,3′-pyrrolo[3,2-c]pyridin]-6′-yl)acetamide trifluoroacetate], the pIC50 (JH2 domain of human Tyk2) was 7.00 to 8.00 and the pIC50 [1] was ≤ 6.00.
In the case of `COc1ccc(-c2nc(C)cc(N3CC4(CC4)c4cnc(NC(C)=O)cc43)n2)cn1` [Example 254, N-(1′-(2-(6-methoxypyridin-3-yl)-6-methylpyrimidin-4-yl)-1′,2′-dihydrospiro[cyclopropane-1,3′-pyrrolo[3,2-c]pyridin]-6′-yl)acetamide trifluoroacetate], the pIC50 (JH2 domain of human Tyk2) was 6.00 to 7.00 and the pIC50 [1] was ≤ 6.00.
`CC(=O)Nc1cc2c(cn1)C1(CC1)CN2c1cc(C)cc(-c2ccn(C)n2)n1` [Example 256, N-(1′-(4-methyl-6-(1-methyl-1H-pyrazol-3-yl)pyridin-2-yl)-1′,2′-dihydrospiro[cyclopropane-1,3′-pyrrolo[3,2-c]pyridin]-6′-yl)acetamide trifluoroacetate] was tested, and the pIC50 (JH2 domain of human Tyk2) was 7.00 to 8.00 and the pIC50 [1] was ≤ 6.00.
With `CC(=O)Nc1cc2c(cn1)C1(CC1)CN2c1cc(C)cc(-c2cnn(C)c2)n1` [Example 257, N-(1′-(4-methyl-6-(1-methyl-1H-pyrazol-4-yl)pyridin-2-yl)-1′,2′-dihydrospiro[cyclopropane-1,3′-pyrrolo[3,2-c]pyridin]-6′-yl)acetamide trifluoroacetate] the pIC50 (JH2 domain of human Tyk2) was ≥ 8.00 and the pIC50 [1] was 6.00 to 7.00.
`CC(=O)Nc1cc2c(cn1)C1(CC1)CN2c1cc(C)cc(-c2cnn(S(C)(=O)=O)c2)n1` [Example 258, N-(1′-(4-methyl-6-(1-(methylsulfonyl)-1H-pyrazol-4-yl)pyridin-2-yl)-1′,2′-dihydrospiro[cyclopropane-1,3′-pyrrolo[3,2-c]pyridin]-6′-yl)acetamide trifluoroacetate] gave a pIC50 (JH2 domain of human Tyk2) of 7.00 to 8.00 and a pIC50 [1] of 6.00 to 7.00.
In the case of `CC(=O)Nc1cc2c(cn1)C1(CC1)CN2c1cc(C)cc(-c2cnn(C(F)F)c2)n1` [Example 259, N-(1′-(6-(1-(difluoromethyl)-1H-pyrazol-4-yl)-4-methylpyridin-2-yl)-1′,2′-dihydrospiro[cyclopropane-1,3′-pyrrolo[3,2-c]pyridin]-6′-yl)acetamide trifluoroacetate], the pIC50 (JH2 domain of human Tyk2) was ≥ 8.00 and the pIC50 [1] was 6.00 to 7.00.
With `CCn1cc(-c2cc(C)cc(N3CC4(CC4)c4cnc(NC(C)=O)cc43)n2)cn1` [Example 260, N-(1′-(6-(1-ethyl-1H-pyrazol-4-yl)-4-methylpyridin-2-yl)-1′,2′-dihydrospiro[cyclopropane-1,3′-pyrrolo[3,2-c]pyridin]-6′-yl)acetamide trifluoroacetate] the pIC50 (JH2 domain of human Tyk2) was 7.00 to 8.00 and the pIC50 [1] was ≤ 6.00.
In the case of `CC(=O)Nc1cc2c(cn1)C1(CC1)CN2c1cc(C)cc(-c2cnn(C(C)C)c2)n1` [Example 263, N-(1′-(6-(1-isopropyl-1H-pyrazol-4-yl)-4-methylpyridin-2-yl)-1′,2′-dihydrospiro[cyclopropane-1,3′-pyrrolo[3,2-c]pyridin]-6′-yl)acetamide trifluoroacetate], the pIC50 (JH2 domain of human Tyk2) was 7.00 to 8.00 and the pIC50 [1] was ≤ 6.00.
`CC(=O)Nc1cc2c(cn1)C1(CC1)CN2c1cc(C)cc(-c2cnn(C3CC3)c2)n1` [Example 264, N-(1′-(6-(1-cyclopropyl-1H-pyrazol-4-yl)-4-methylpyridin-2-yl)-1′,2′-dihydrospiro[cyclopropane-1,3′-pyrrolo[3,2-c]pyridin]-6′-yl)acetamide trifluoroacetate] was tested, and the pIC50 (JH2 domain of human Tyk2) was 7.00 to 8.00 and the pIC50 [1] was ≤ 6.00.
For `CC(=O)Nc1cc2c(cn1)C1(CC1)CN2c1cc(N)nc(C(C)(F)F)n1` [Example 273, N-(1′-(6-amino-2-(1,1-difluoroethyl)pyrimidin-4-yl)-1′,2′-dihydrospiro[cyclopropane-1,3′-pyrrolo[3,2-c]pyridin]-6′-yl)acetamide trifluoroacetate], the pIC50 (JH2 domain of human Tyk2) was ≥ 8.00 and the pIC50 [1] was 7.00 to 8.00.
